US8772495B2, “5-lipoxygenase-activating protein inhibitor” (Panmira Pharmaceuticals, LLC, priority 2008, dated 2014)
Entries after “also recorded” stand apart in the source; their conditions may differ. Like-named read-outs stand apart in the source and are kept apart here.

Tests used:
CYP2C19 = CYP2C19 (Homo sapiens (Human), UniProt P33261); experiment: Extracellular cytochrome P450 inhibition (microsomes); format: in vitro ADME; details: mephenytoin 4′-hydroxylation
Source text: Final solvent concentrations were 1% (v/v) or less.

[1] = Physical and chemical stability of polymorphs (storage, humidity chamber); format: physicochemical; details: for XRPD pattern after one week stability study: 40° C. and 75% RH, one week in humidity chamber
[2] = Thermodynamic aqueous solubility by HPLC; format: physicochemical; details: water, 25° C.
Description: The suspension was equilibrated at 25° C. for 24 hours then the pH was measured. The suspension was then filtered through a glass fibre C filter into a 96 well plate. […] Quantitation was by HPLC with reference to a standard solution of approximately 0.1 mg.ml^−1 in DMSO. Different volumes of the standard, diluted and undiluted sample solutions were injected.
Analysis was performed on an Agilent HP1100 series system equipped with a diode array detector and using ChemStation software vB.02.01-SR1.

[3] = Gravimetric vapour sorption (GVS); format: physicochemical; details: for XRPD pattern after the GVS experiment: after full sorption/desorption cycle; for water adsorbed (GVS): at 90% RH
Description: Sorption isotherms were obtained using a Hiden IGASorp moisture sorption analyser, controlled by CFRSorp software. The sample temperature was maintained at 25° C. by a Huber re-circulating water bath. The humidity was controlled by mixing streams of dry and wet nitrogen, with a total flow rate of 250 ml. min^−1. The relative humidity was measured by a calibrated Vaisala RH probe (dynamic range of 0-95% RH), located near the sample. The weight change, (mass relaxation) of the sample as a function of % RH was constantly monitored by the microbalance (accuracy ±0.001 mg).
Typically 10-20 mg of sample was placed in a tared mesh stainless steel basket under ambient conditions. The sample was loaded and unloaded at 40% RH and 25° C. (typical room conditions).
A moisture sorption isotherm was performed as outlined below (2 scans giving 1 complete cycle). The standard isotherm was performed at 25° C. at 10% RH intervals over a 0-90% RH range.
The software uses a least squares minimisation procedure together with a model of the mass relaxation, to predict an asymptotic value. The measured mass relaxation value must be within 5% of that predicted by the software, before the next % RH value is selected. The minimum equilibration time was set to 1 hour and the maximum to 4 hours.

[4] = Oral dosing of amorphous phase A and Form C in rats; format: in vivo
[5] = Liquid formulations for oral solutions/suspensions; format: physicochemical; details: below pH values of about 9-10
Description: Values of pH reported were estimated based on pH indicating strips. […] Accordingly, provided in certain embodiments herein were formulations having a pH above about 9, above about 10 or of about 10. In certain embodiments, the formulation was buffered at a pH of about 10. All formulations prepared were sonicated for about 10 minutes.

[6] = tested on: whole blood ionophore-stimulated leukotriene LTB4; experiment: Phase I study: ex vivo ionophore-stimulated LTB4; format: in vivo, human; details: in vivo
Source text: Study Design: Single center, double-blind, randomized, placebo-controlled, single ascending dose followed by multiple ascending dose study.
Sample Size: (1) Single Dose Phase: eight (8) subjects (6 active, 2 placebo) per dose level; up to 5 dose levels are planned (a total of 40 subjects if all 5 dose levels are completed); and (2) Multiple Dose Phase: eight (8) subjects (6 active, 2 placebo) per dose level; up to 4 dose levels are planned (a total of 32 subjects if all 4 dose levels are completed).
Formulations: Compound 2 was supplied as an oral powder for reconstitution. Placebo solution matched. […] The placebo differed only in the absence of the active.
The following dosing cohorts were used:
Routes of Administration: All doses were administered orally with approximately 100 mL of water rinse. Subjects were fasted for at least 8 hours prior to dosing and for 2 hours after dosing. For BID dosing in the Multiple Dose Phase, when applicable, subjects were fasted for at least 2 hours prior to the second daily dose.
Plasma concentrations of Compound 1 were determined using a validated LC/MS method. Whole blood ionophore-stimulated leukotriene LTB4 and urinary LTE4 production were assayed by ELISA and mass spectrometry, respectively.
Analysis of Samples: Concentrations of Compound 1 was determined in plasma samples collected from subjects. Similarly, concentrations of LTB4 in plasma and urinary LTE4 were determined in blood and urine samples collected.

[7] = female, CD-1, mouse, in vivo, po, 250 mg/kg/day, 4 days
Description: Twenty-four hours following the final drug administration mice were placed into an enclosed Plexiglas chamber and exposed to CO2 for a period of 30-60 seconds or until breathing ceased. They were then removed subject to cervical dislocation and blood taken via a cardiac puncture. Mice were next placed in a supine position and a midline incision made. All organs were inspected and the livers removed by careful dissection. Liver weights were recorded as well as any gross abnormalities.

Chain of CYP2C19 (P33261 whole entry): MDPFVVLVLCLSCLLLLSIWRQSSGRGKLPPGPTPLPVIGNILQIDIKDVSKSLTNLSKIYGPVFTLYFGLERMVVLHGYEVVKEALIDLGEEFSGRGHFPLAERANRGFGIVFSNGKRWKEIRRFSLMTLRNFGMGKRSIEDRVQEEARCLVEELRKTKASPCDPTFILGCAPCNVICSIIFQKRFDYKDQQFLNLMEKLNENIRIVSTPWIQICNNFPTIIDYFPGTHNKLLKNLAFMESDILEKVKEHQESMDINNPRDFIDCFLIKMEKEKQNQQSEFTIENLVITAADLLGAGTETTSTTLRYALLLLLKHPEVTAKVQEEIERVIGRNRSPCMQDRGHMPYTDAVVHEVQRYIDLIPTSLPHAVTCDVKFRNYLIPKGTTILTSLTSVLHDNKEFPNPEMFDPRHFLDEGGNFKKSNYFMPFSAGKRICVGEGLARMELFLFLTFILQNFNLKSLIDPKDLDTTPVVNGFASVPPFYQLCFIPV

CCC1(c2ccccc2)C(=O)NC(=O)N(Cc2ccccc2)C1=O (single isomer, unassigned; (-)) [(−)-N-3-benzyl-phenobarbital, reference compound]
IC50 (CYP2C19): 2.8 µM

CCOc1ccc(-c2ccc(Cn3c(CC(C)(C)C(=O)[O-])c(SC(C)(C)C)c4cc(OCc5ccc(C)cn5)ccc43)cc2)cn1.[Na+] [Amorphous Phase A, sodium 3-[3-(tert-butylsulfanyl)-1-[4-(6-ethoxy-pyridin-3-yl)benzyl]-5-(5-methyl-pyridin-2-yl-methoxy)-1H-indol-2-yl]-2,2-dimethylpropionate]
XRPD pattern after one week stability study [1]: remains amorphous
physical and chemical stability ([1]; listed as Amphorous Phase A): chemically stable
Concentration of filtrate ([2]; 24 hours): >10 mg/mL of free base
Appearance of mixture after equilibration for 24 hours ([2]; listed as Compound 2 Phase A): Suspension
pH of unfiltered saturated solution ([2]; listed as Compound 2 Phase A): 9.14
hygroscopicity [3]: hygroscopic
XRPD pattern after the GVS experiment [3]: No changes were observed
water adsorbed (GVS) [3]: more than 22%
water adsorbed (GVS) ([3]; listed as Amphorous Phase A): more than 20%
hygroscopicity ([3]; listed as Amphorous Phase A): hygroscopic
plasma exposures after oral dosing [4]: equivalent plasma exposures

CCOc1ccc(-c2ccc(Cn3c(CC(C)(C)C(=O)O)c(SC(C)(C)C)c4cc(OCc5ccc(C)cn5)ccc43)cc2)cn1 [Compound 1, 3-[3-(tert-butylsulfanyl)-1-[4-(6-ethoxy-pyridin-3-yl)benzyl]-5-(5-methyl-pyridin-2-yl-methoxy)-1H-indol-2-yl]-2,2-dimethylpropanoic acid]
solubility in certain solvent systems [5]: sparingly soluble
plasma concentration at complete inhibition of ionophore-stimulated LTB4 production [6]: 1000 to 1500 ng/mL

CCOc1ccc(-c2ccc(Cn3c(CC(C)(C)C(=O)[O-])c(SC(C)(C)C)c4cc(OCc5ccc(C)cn5)ccc43)cc2)cn1.[Na+] [Form C, sodium 3-[3-(tert-butylsulfanyl)-1-[4-(6-ethoxy-pyridin-3-yl)benzyl]-5-(5-methyl-pyridin-2-yl-methoxy)-1H-indol-2-yl]-2,2-dimethylpropionate]
physical and chemical stability [1]: physically and chemically stable
physical and chemical stability ([1]; 5° C., 25° C./60% RH and 40° C./75% RH for at least one month): physically and chemically stable
XRPD pattern after one week stability study ([1]; listed as polymorph Form C): remains unchanged
hygroscopicity [3]: non-hygroscopic; also recorded: nonhygroscopic
XRPD pattern after the GVS experiment ([3]; listed as polymorph Form C): No changes were observed
water adsorbed (GVS) [3]: < 9%
water adsorbed (GVS) ([3]; listed as polymorph Form C): 8.2%
hygroscopicity ([3]; listed as polymorph Form C): significantly less hygroscopic than the amorphous material
plasma exposures after oral dosing [4]: equivalent plasma exposures

CCOc1ccc(-c2ccc(Cn3c(CC(C)(C)C(=O)[O-])c(SC(C)(C)C)c4cc(OCc5ccc(C)cn5)ccc43)cc2)cn1.[Na+] [Solvated Form B, sodium 3-[3-(tert-butylsulfanyl)-1-[4-(6-ethoxy-pyridin-3-yl)benzyl]-5-(5-methyl-pyridin-2-yl-methoxy)-1H-indol-2-yl]-2,2-dimethylpropionate]
physical and chemical stability [1]: physically and chemically stable
hygroscopicity [3]: hygroscopic
XRPD pattern after the GVS experiment ([3]; listed as Polymorph Form B): becomes almost totally amorphous
water adsorbed (GVS) [3]: more than 30%
water adsorbed (GVS) ([3]; listed as Polymorph Form B): more than 30%
hygroscopicity ([3]; listed as Polymorph Form B): hygroscopic

CC(c1cc2ccccc2s1)N(O)C(N)=O (centres unmarked) [Zileuton, zileuton, reference compound]
Liver weight [7]: 1.6 ± 0.2
Liver weight (% body weight) [7]: 5.5 % body weight
liver weight change as compared to vehicle control [7]: 31.0%
